Laboratory results reported in PubChem BioAssay (NCI).
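GI50: concentration for 50% inhibition of growth. TGI marks complete inhibition of growth.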

Key:
Assay in all cases: NCI anticancer screen, dose series, 384-well format
[1] = system: 786-0 renal
[2] = system: A498 renal
[3] = system: A549 NSCLC
[4] = system: ACHN renal
[5] = system: BT-549 breast
[6] = system: CAKI-1 renal
[7] = system: CCRF-CEM leukemia
[8] = system: COLO 205 colon
[9] = system: DU-145 prostate
[10] = system: EKVX NSCLC
[11] = system: HCC-2998 colon
[12] = system: HCT-15 colon
[13] = system: HL-60(TB) leukemia
[14] = system: HOP-62 NSCLC
[15] = system: HOP-92 NSCLC
[16] = system: HS 578T breast
[17] = system: HT29 colon
[18] = system: IGROV1 ovarian
[19] = system: KM12 colon
[20] = system: M14 melanoma
[21] = system: MALME-3M melanoma
[22] = system: MCF7 breast
[23] = system: MDA-MB-231 breast
[24] = system: MDA-MB-435 melanoma
[25] = system: MDA-MB-468 breast
[26] = system: MOLT-4 leukemia
[27] = system: NCI-H226 lung
[28] = system: NCI-H23 lung
[29] = system: NCI-H322M lung
[30] = system: NCI-H460 NSCLC
[31] = system: NCI-H522 lung
[32] = system: NCI/ADR-RES ovarian
[33] = system: OVCAR-3 ovarian
[34] = system: OVCAR-4 ovarian
[35] = system: OVCAR-5 ovarian
[36] = system: OVCAR-8 ovarian
[37] = system: PC-3 prostate
[38] = system: RPMI-8226 leukemia
[39] = system: RXF 393 renal
[40] = system: SF-268 CNS
[41] = system: SF-295 CNS
[42] = system: SF-539 CNS
[43] = system: SK-MEL-2 melanoma
[44] = system: SK-MEL-28 melanoma
[45] = system: SK-MEL-5 melanoma
[46] = system: SK-OV-3 ovarian
[47] = system: SNB-19 CNS
[48] = system: SNB-75 CNS
[49] = system: SR leukemia
[50] = system: SW-620 colon
[51] = system: T-47D breast
[52] = system: TK-10 renal
[53] = system: U251 glioblastoma
[54] = system: UACC-257 melanoma
[55] = system: UACC-62 melanoma

For `N#C[C@@H]1C(n2ccc(N)nc2=O)O[C@H](CO)[C@H]1O` (some centres undefined), the GI50 [1] was 0.418 µM, the TGI [1] was 46.8 µM and the GI50 [2] was 0.688 µM. The TGI [2] was 14.4 µM, the GI50 [3] was 1.25 µM and the TGI [3] was 71 µM. For the same compound, the GI50 [4] was 14.5 µM, the TGI [4] was 35.6 µM and the GI50 [5] was 3.56 µM. For the same compound, the TGI [5] was over 100 µM, the GI50 [6] was 20 µM and the TGI [6] was over 100 µM. The GI50 [7] was 0.0275 µM, the TGI [7] was 0.125 µM and the GI50 [8] was 2.28 µM. The TGI [8] was 17.7 µM, the GI50 [9] was 0.54 µM and the TGI [9] was 35.3 µM. It also gave a GI50 [10] of over 100 µM, a TGI [10] of over 100 µM and a GI50 [11] of 0.893 µM. The TGI [11] was 18.4 µM, the GI50 [12] was 9.45 µM and the TGI [12] was over 100 µM. The GI50 [13] was 0.315 µM, the TGI [13] was 0.728 µM and the GI50 [14] was 0.34 µM. For the same compound, the TGI [14] was 16.7 µM, the GI50 [15] was 3.17 µM and the TGI [15] was 93.8 µM. For the same compound, the GI50 [16] was 2.01 µM, the TGI [16] was over 100 µM and the GI50 [17] was over 100 µM. For the same compound, the TGI [17] was over 100 µM, the GI50 [18] was over 100 µM and the TGI [18] was over 100 µM. It also gave a GI50 [19] of 8.14 µM, a TGI [19] of over 100 µM and a GI50 [20] of 0.543 µM. It also gave a TGI [20] of 4.47 µM, a GI50 [21] of 1.21 µM and a TGI [21] of 7.34 µM. For the same compound, the GI50 [22] was 1.58 µM, the TGI [22] was over 100 µM and the GI50 [23] was 17.1 µM. It also gave a TGI [23] of over 100 µM, a GI50 [24] of 85 µM and a TGI [24] of over 100 µM. It also gave a GI50 [25] of 0.314 µM, a TGI [25] of 0.824 µM and a TGI [26] of 0.0141 µM. The GI50 [27] was 3.7 µM, the TGI [27] was 32.4 µM and the GI50 [28] was 0.569 µM. It also gave a TGI [28] of 12.2 µM, a GI50 [29] of 45.8 µM and a TGI [29] of over 100 µM. For the same compound, the GI50 [30] was 0.283 µM, the TGI [30] was 10.5 µM and the GI50 [31] was 2.03 µM. The TGI [31] was 79.6 µM, the GI50 [32] was 6.95 µM and the TGI [32] was 32.1 µM. It also gave a GI50 [33] of 13.9 µM, a TGI [33] of over 100 µM and a GI50 [34] of over 100 µM. It also gave a TGI [34] of over 100 µM, a GI50 [35] of 37.1 µM and a TGI [35] of over 100 µM. The GI50 [36] was 0.962 µM, the TGI [36] was 20.9 µM and the GI50 [37] was 36.4 µM. It also gave a TGI [37] of over 100 µM, a GI50 [38] of 6.73 µM and a TGI [38] of 55.9 µM. The GI50 [39] was 24.4 µM, the TGI [39] was 70.3 µM and the GI50 [40] was 0.632 µM. It also gave a TGI [40] of 27.7 µM, a GI50 [41] of 2.22 µM and a TGI [41] of 44.8 µM. For the same compound, the GI50 [42] was 4.18 µM, the TGI [42] was over 100 µM and the GI50 [43] was 2.75 µM. It also gave a TGI [43] of 7.76 µM, a GI50 [44] of 2.34 µM and a TGI [44] of 9.71 µM. The GI50 [45] was 3.52 µM, the TGI [45] was 44.4 µM and the GI50 [46] was 1.32 µM. It also gave a TGI [46] of 21.9 µM, a GI50 [47] of 0.849 µM and a TGI [47] of 47.4 µM. It also gave a GI50 [48] of 13.8 µM, a TGI [48] of 85.8 µM and a GI50 [49] of 1.92 µM. It also gave a TGI [49] of 3.54 µM, a GI50 [50] of 34.9 µM and a TGI [50] of over 100 µM. For the same compound, the GI50 [51] was over 100 µM, the TGI [51] was over 100 µM and the GI50 [52] was over 100 µM. For the same compound, the TGI [52] was over 100 µM, the GI50 [53] was 3.78 µM and the TGI [53] was 67.7 µM. For the same compound, the GI50 [54] was 31.9 µM, the TGI [54] was over 100 µM and the GI50 [55] was 3.35 µM. It also gave a TGI [55] of 34.4 µM.
